Measured values taken from the NIST ThermoML archive (doi:10.1021/je400951k).
Numbers after ± are expanded uncertainties.

C[C@H]1CC[C@@H]2C[C@H]1C2(C)C (racemic) [(1RS,2SR,5RS)-2,6,6-trimethylbicyclo[3.1.1]heptane]
Liquid, Closed cell (Static) method
Details | vapor or sublimation pressure [kPa]
330.27 K | 2.04 ± 0.086
338.5 K | 3.03 ± 0.12
344.71 K | 4.015 ± 0.17
349.8 K | 4.98 ± 0.2
357.77 K | 7.015 ± 0.29
360.94 K | 8.015 ± 0.33
366.78 K | 10.04 ± 0.41
373.45 K | 13.04 ± 0.53
379.03 K | 16.05 ± 0.65
385.72 K | 20.04 ± 0.81
392.24 K | 25.05 ± 1
397.94 K | 30.04 ± 1.2
407.54 K | 40.03 ± 1.6
415.01 K | 50.03 ± 2

C=C(C)C1CC=C(C)CC1 (stereo unspecified) [1-methyl-4-(1-methylethenyl)cyclohexene]
Liquid, Closed cell (Static) method
Details | vapor or sublimation pressure [kPa]
346.96 K | 3.01 ± 0.13
353.19 K | 4.013 ± 0.17
358.22 K | 5.008 ± 0.21
362.25 K | 6.002 ± 0.25
366.08 K | 7.018 ± 0.29
369.31 K | 8.018 ± 0.33
372.54 K | 9.043 ± 0.37
375.27 K | 10.02 ± 0.41
379.93 K | 12.04 ± 0.49
386.12 K | 15.04 ± 0.61
394.56 K | 20.01 ± 0.81
401.29 K | 25.04 ± 1
407.1 K | 30.09 ± 1.2
416.21 K | 39.91 ± 1.6
420.21 K | 44.8 ± 1.8

CC(=O)O[C@@H]1C[C@H]2CC[C@]1(C)C2(C)C (relative stereo)
Liquid, Closed cell (Static) method
Details | vapor or sublimation pressure [kPa]
381.09 K | 2.004 ± 0.084
390.08 K | 3.021 ± 0.12
397.1 K | 4.013 ± 0.16
402.69 K | 5.01 ± 0.2
407.45 K | 6.023 ± 0.25
411.6 K | 7.027 ± 0.29
414.92 K | 8.014 ± 0.33
418.66 K | 9.042 ± 0.37
421.67 K | 10.03 ± 0.41
427.93 K | 12.04 ± 0.49
434.61 K | 15.02 ± 0.61
442.35 K | 19.12 ± 0.78
452.64 K | 26.01 ± 1.1
457.89 K | 30.15 ± 1.2
463.13 K | 35 ± 1.4
468.12 K | 40.12 ± 1.6
472.63 K | 45.25 ± 1.8

O [water]
Liquid, Closed cell (Static) method
Details | vapor or sublimation pressure [kPa]
292.54 K | 2.16 ± 0.096
303.48 K | 4.43 ± 0.18
310.23 K | 6.19 ± 0.26
315.78 K | 8.497 ± 0.35
319.82 K | 10.5 ± 0.44
327.62 K | 15.71 ± 0.65
334.02 K | 20.83 ± 0.85
343.07 K | 30.04 ± 1.2

C=CC(C)CCCC(C)(C)O (stereo unspecified) [2,6-dimethyl-7-octen-2-ol]
Liquid, Closed cell (Static) method
Details | vapor or sublimation pressure [kPa]
351.52 K | 0.82 ± 0.036
354.37 K | 1.015 ± 0.044
360.41 K | 1.516 ± 0.064
365.22 K | 2.03 ± 0.086
372.31 K | 3.024 ± 0.13
377.4 K | 4.017 ± 0.17
381.86 K | 5.015 ± 0.21
388.97 K | 7.03 ± 0.29
394.58 K | 9.035 ± 0.37
401.82 K | 12.04 ± 0.49
407.61 K | 15.04 ± 0.61
415.17 K | 20.03 ± 0.81
421.59 K | 25.04 ± 1

C=CC(C)CCC=C(C)C (stereo unspecified) [3,7-dimethyl-1,6-octadiene]
Liquid, Closed cell (Static) method
Details | vapor or sublimation pressure [kPa]
316.5 K | 1.26 ± 0.054
322.57 K | 1.76 ± 0.073
327.44 K | 2.26 ± 0.094
334.96 K | 3.26 ± 0.13
340.66 K | 4.26 ± 0.17
345.44 K | 5.26 ± 0.22
349.51 K | 6.26 ± 0.26
356.16 K | 8.25 ± 0.34
361.68 K | 10.23 ± 0.42
373.78 K | 16.25 ± 0.66
379.02 K | 20.26 ± 0.83
385.62 K | 25.26 ± 1
391.11 K | 30.26 ± 1.2

C=C1C2CCC(C2)C1(C)C (stereo unspecified) [2,2-dimethyl-3-methylenebicyclo[2.2.1]heptane]
Details | vapor or sublimation pressure [kPa]
309.7 K, Metastable liquid, Closed cell (Static) method | 1.007 ± 0.044
322.72 K, Closed cell (Static) method, Liquid | 2.026 ± 0.084
331.06 K, Closed cell (Static) method, Liquid | 3.053 ± 0.13
337.27 K, Closed cell (Static) method, Liquid | 4.056 ± 0.17
342.04 K, Closed cell (Static) method, Liquid | 5.043 ± 0.21
346.21 K, Closed cell (Static) method, Liquid | 6.007 ± 0.25
350.07 K, Closed cell (Static) method, Liquid | 7.068 ± 0.29
353.23 K, Closed cell (Static) method, Liquid | 8.029 ± 0.33
355.98 K, Closed cell (Static) method, Liquid | 9.003 ± 0.37
358.83 K, Closed cell (Static) method, Liquid | 10.07 ± 0.41
365.69 K, Closed cell (Static) method, Liquid | 13.05 ± 0.53
369.58 K, Closed cell (Static) method, Liquid | 15.06 ± 0.62
378.51 K, Closed cell (Static) method, Liquid | 20.12 ± 0.82
384.98 K, Closed cell (Static) method, Liquid | 25 ± 1
390.65 K, Closed cell (Static) method, Liquid | 29.95 ± 1.2
399.95 K, Closed cell (Static) method, Liquid | 40.04 ± 1.6
407.61 K, Closed cell (Static) method, Liquid | 50.02 ± 2

CCCCCCCCO [octan-1-ol]
Liquid, Closed cell (Static) method
Details | vapor or sublimation pressure [kPa]
358.05 K | 1.088 ± 0.047
363.99 K | 1.527 ± 0.064
368.73 K | 2.016 ± 0.086
381.98 K | 4.073 ± 0.17
393.36 K | 7.08 ± 0.29
401.09 K | 10.04 ± 0.41
410.79 K | 15.04 ± 0.61
418.15 K | 20.03 ± 0.82
429.75 K | 30.2 ± 1.2
